Data published in the NIST ThermoML archive (doi:10.1016/j.fluid.2014.04.015).
± gives the expanded uncertainty stated by the source.

Settings: Liquid, Closed cell (Static) method

Compound	vapor or sublimation pressure (283.15 K) [kPa]	vapor or sublimation pressure (293.15 K) [kPa]	vapor or sublimation pressure (303.15 K) [kPa]	vapor or sublimation pressure (313.15 K) [kPa]	vapor or sublimation pressure (323.15 K) [kPa]
C=C(F)C(F)(F)F [2,3,3,3-tetrafluoro-1-propene]	436.5 ± 7.1	591 ± 7.2	780.5 ± 7.4	1015.6 ± 7.6	1300.7 ± 7.9
CC(F)F [1,1-difluoroethane]	374.8 ± 7	515.2 ± 7	692 ± 7.1	911.1 ± 7.1	1179.4 ± 7.2
